{"source": "patent US5693488A", "about": "“Transmembrane tyrosine phosphatase, nucleic acids encoding the same, and methods of use thereof” (The Rockefeller University, priority 1994, dated 1997)", "key": {"[1]": {"target": "T1, pKPTPλ, truncated ChPTPλ containing the intracellular domain (Gallus gallus, UniProt Q91976)", "T1 construct": "HindIII/EcoRI fragment in pKKUC12, E. coli DHB4 extract", "T1 sequence (Q91976 541-1237)": "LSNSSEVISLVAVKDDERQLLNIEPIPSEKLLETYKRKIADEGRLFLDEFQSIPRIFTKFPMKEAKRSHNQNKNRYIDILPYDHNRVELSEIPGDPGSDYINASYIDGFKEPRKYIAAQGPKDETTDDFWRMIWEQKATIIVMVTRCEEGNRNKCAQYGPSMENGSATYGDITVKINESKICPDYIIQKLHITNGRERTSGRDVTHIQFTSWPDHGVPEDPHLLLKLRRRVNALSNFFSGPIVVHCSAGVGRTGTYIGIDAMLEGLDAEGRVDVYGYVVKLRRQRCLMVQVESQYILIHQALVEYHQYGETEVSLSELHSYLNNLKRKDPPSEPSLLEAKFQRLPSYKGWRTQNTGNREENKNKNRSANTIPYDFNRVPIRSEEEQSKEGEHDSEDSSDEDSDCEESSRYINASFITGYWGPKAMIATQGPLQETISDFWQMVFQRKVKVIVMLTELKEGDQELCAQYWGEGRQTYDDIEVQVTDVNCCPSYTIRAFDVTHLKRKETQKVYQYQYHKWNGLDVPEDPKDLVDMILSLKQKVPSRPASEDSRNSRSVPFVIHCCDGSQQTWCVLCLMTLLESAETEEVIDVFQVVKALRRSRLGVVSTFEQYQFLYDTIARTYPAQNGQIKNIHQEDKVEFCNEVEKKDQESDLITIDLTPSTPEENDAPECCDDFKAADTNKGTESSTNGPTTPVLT", "test": "PTP assay of bacterial extract expressing pKPTPλ", "type": "biochemical, chicken", "method": "A 2 kb-cDNA fragment encoding the entire intracellular domain of ChPTPλ was excised by HindIII and EcoRI (starting from leucine 520, FIG. 2A-2C) and ligated to the expression vector pKKUC12. The recombinant,pkPTPλ, was transformed into E. coli DHB4 that lacks alkaline phosphatase (35). After induction by 0.4 mM IPTG for 2 h, bacterial extracts were prepared (5) and 5 μl samples were used for PTP assays. The extract of DHB4 containing the vector only was used as a negative control.\n(§1) Raytide (Oncogene Science) and bovine brain myelin basic protein (Sigma) (20 μg each) were phosphorylated on tyrosines by v-Src (34 pg), purified from a baculovirus expression system (35a), in 50 μl containing 20 mM Tris-HCl, pH 7.2/5 mM MnCl2 /50 μCi [γ-^32 P]ATP at 30° C. for 3 h. Casein and histone 2B (Sigma) were phosphorylated on serines and threonines by the catalytic subunit of calf heart cAMP-dependent protein kinase (1 U, Sigma) in 50 μl including 25 mM Hepes, pH 7.4/10 mM MgCl2 /10 mM DTT/50 μCi [γ-^32 P]ATP. All reactions were terminated by TCA-precipitationand resuspended in Tris-HCl (pH 8.0) as previously described (5).\n(§2) […] When bacterial extract was used, assay was done in 50 μl of PTP buffer. After incubating at 30° C. for 30 min, the reactions were stopped, and the released ^32 Pi was measured as previously described (5)."}, "ChPTPλ": {"test_system": "ChPTPλ", "test": "PTP assay of ChPTPλ immunoprecipitated with A299 from DT40 cells (release of 32Pi from tyrosine-phosphorylated substrate)", "type": "biochemical, chicken", "conditions": "for ChPTPλ (% activity): buffer 20 mM Hepes (pH 7.4); for effect on ChPTPλ activity (in words) / effect on ChPTPλ activity: concentration not given (Table 1); for requirement for higher ChPTPλ activity in vitro (in words): chelator", "method": "For immunoblot (Western) analysis, cells were lysed in 1% SDS containing protease inhibitor mix (1 mM phenylmethylsulfonyl fluoride/2 μg aprotinin per ml/1 μg pepstatin per ml) (Boehringer). […] For immunoprecipitation, cells were solubilized in 1% NP-40/PBS/protease inhibitor mix, then ChPTPλ was immunoprecipitated with pA299 (25).\nas §1, §2"}, "[2]": {"conditions": "10 mM, buffer 20 mM Hepes (pH 7.4), 10 mM DTT, 5 mM EDTA"}}, "data": [{"compound": "[Ca+2].[Cl-].[Cl-]", "note": "[CaCl2]", "values": [{"measurement": "pKPTPλ (% activity)", "setting": "[1]; [2]", "value": 90, "unit": "%"}, {"measurement": "ChPTPλ (% activity)", "setting": "ChPTPλ; 10 mM, 10 mM DTT, 5 mM EDTA", "value": 100, "unit": "%"}, {"measurement": "effect on ChPTPλ activity (in words)", "setting": "ChPTPλ", "value": "no effect at all"}]}, {"compound": "O[C@@H](CS)[C@@H](O)CS", "note": "[DTT]", "values": [{"measurement": "pKPTPλ (% activity)", "setting": "[1]; 10 nM, buffer 20 mM Hepes (pH 7.4)", "value": 80, "unit": "%"}, {"measurement": "ChPTPλ (% activity)", "setting": "ChPTPλ; 10 nM", "value": 65, "unit": "%"}, {"measurement": "ChPTPλ (% activity)", "setting": "ChPTPλ; 1 mM", "value": 39, "unit": "%"}, {"measurement": "requirement for ChPTPλ activity (in words)", "setting": "ChPTPλ; 10 mM, reducing reagent", "value": "required for ChPTPλ activity"}]}, {"compound": "O=C(O)CN(CCN(CC(=O)O)CC(=O)O)CC(=O)O", "note": "[EDTA]", "values": [{"measurement": "activity at 0.005 µM", "setting": "[1]; pH 7.4, read-out: pKPTPλ (% activity)", "value": 100, "unit": "%"}, {"measurement": "ChPTPλ (% activity)", "setting": "ChPTPλ; 5 nM, 10 mM DTT", "value": 100, "unit": "%"}, {"measurement": "requirement for higher ChPTPλ activity in vitro (in words)", "setting": "ChPTPλ", "value": "needed for ChPTPλ to reach a higher activity"}]}, {"compound": "O=C(O)CN(CCOCCOCCN(CC(=O)O)CC(=O)O)CC(=O)O", "note": "[EGTA]", "values": [{"measurement": "activity at 5000 µM", "setting": "[1]; 5 mM, buffer 20 mM Hepes (pH 7.4), 10 mM DTT", "value": 100, "unit": "%"}, {"measurement": "ChPTPλ (% activity)", "setting": "ChPTPλ; 5 mM, 10 mM DTT", "value": 100, "unit": "%"}, {"measurement": "requirement for higher ChPTPλ activity in vitro (in words)", "setting": "ChPTPλ", "value": "needed for ChPTPλ to reach a higher activity"}]}, {"compound": "O=C(O)CI", "note": "[Iodoacetate]", "values": [{"measurement": "inhibition of ChPTPλ", "setting": "ChPTPλ; 1 mM", "value": "> 70", "unit": "%"}, {"measurement": "ChPTPλ (% activity)", "setting": "ChPTPλ; 1 mM, 10 mM DTT, 5 mM EDTA", "value": 29, "unit": "%"}]}, {"compound": "[Cl-].[Cl-].[Mg+2]", "note": "[MgCl2]", "values": [{"measurement": "pKPTPλ (% activity)", "setting": "[1]; [2]", "value": 80, "unit": "%"}, {"measurement": "ChPTPλ (% activity)", "setting": "ChPTPλ; 10 mM, 10 mM DTT, 5 mM EDTA", "value": 80, "unit": "%"}, {"measurement": "effect on ChPTPλ activity", "setting": "ChPTPλ", "value": "< 30", "unit": "%"}]}, {"compound": "[Cl][Mn][Cl]", "note": "[MnCl2]", "values": [{"measurement": "pKPTPλ (% activity)", "setting": "[1]; [2]", "value": 51, "unit": "%"}, {"measurement": "inhibitory influence on pKPTPλ activity", "setting": "[1]; same assaying conditions (Table 1)", "value": 49, "unit": "%"}, {"measurement": "ChPTPλ (% activity)", "setting": "ChPTPλ; 10 mM, 10 mM DTT, 5 mM EDTA", "value": 87, "unit": "%"}, {"measurement": "effect on ChPTPλ activity", "setting": "ChPTPλ", "value": "< 30", "unit": "%"}]}, {"compound": "[Na+].[Na+].[O]=[Mo](=[O])([O-])[O-]", "note": "[Na2 MoO4]", "values": [{"measurement": "pKPTPλ (% activity)", "setting": "[1]; 0.1 mM, buffer 20 mM Hepes (pH 7.4), 10 mM DTT, 5 mM EDTA", "value": 11, "unit": "%"}, {"measurement": "inhibition of ChPTPλ", "setting": "ChPTPλ; 0.1 mM", "value": "> 70", "unit": "%"}, {"measurement": "ChPTPλ (% activity)", "setting": "ChPTPλ; 0.1 mM, 10 mM DTT, 5 mM EDTA", "value": 24, "unit": "%"}]}, {"compound": "[Na+].[Na+].[Na+].[O]=[V]([O-])([O-])[O-]", "note": "[Na3 VO4]", "values": [{"measurement": "pKPTPλ (% activity)", "setting": "[1]; 1 mM, buffer 20 mM Hepes (pH 7.4), 10 mM DTT, 5 mM EDTA", "value": 2, "unit": "%"}, {"measurement": "ChPTPλ (% activity)", "setting": "ChPTPλ; 0.1 mM, 10 mM DTT, 5 mM EDTA", "value": 78, "unit": "%"}, {"measurement": "inhibition of ChPTPλ", "setting": "ChPTPλ; 1 mM", "value": "> 70", "unit": "%"}, {"measurement": "ChPTPλ (% activity)", "setting": "ChPTPλ; 1 mM, 10 mM DTT, 5 mM EDTA", "value": 4, "unit": "%"}]}, {"compound": "[Cl-].[Na+]", "note": "[NaCl]", "values": [{"measurement": "ChPTPλ (% activity)", "setting": "ChPTPλ; 200 mM, 10 mM DTT, 5 mM EDTA", "value": 100, "unit": "%"}, {"measurement": "effect on ChPTPλ activity (in words)", "setting": "ChPTPλ", "value": "no effect at all"}]}, {"compound": "[Cl-].[Cl-].[Zn+2]", "note": "[ZnCl2]", "values": [{"measurement": "pKPTPλ (% activity)", "setting": "[1]; [2]", "value": 1, "unit": "%"}, {"measurement": "inhibition of ChPTPλ", "setting": "ChPTPλ; 10 mM", "value": "> 70", "unit": "%"}, {"measurement": "ChPTPλ (% activity)", "setting": "ChPTPλ; 10 mM, 10 mM DTT, 5 mM EDTA", "value": 12, "unit": "%"}]}, {"compound": "NaPO4", "values": [{"measurement": "pKPTPλ (% activity)", "setting": "[1]; [2]", "value": 95, "unit": "%"}, {"measurement": "ChPTPλ (% activity)", "setting": "ChPTPλ; 10 mM, 10 mM DTT, 5 mM EDTA", "value": 70, "unit": "%"}, {"measurement": "effect on ChPTPλ activity", "setting": "ChPTPλ", "value": "< 30", "unit": "%"}]}]}
